Five molecules from patent US10590115B2, “Tetrahydroquinazoline derivatives useful as anticancer agents” (PFIZER INC., priority 2018, dated 2020) can be followed below.

The target in assay [1] is T1, GDP-loaded kRas (1-169) G12C, C51S, C80L, C118S (Homo sapiens, UniProt P01116, C118S/C51S/C80L/G12C).
T1 construct: GDP-loaded kRas (1-169) G12C, C51S, C80L, C118S
Put plainly: Mass Spectrometry Reactivity Assay (MSRA), covalent adduct with kRas G12C. It counts as binding. The note with it: 0.5 h at room temperature; 5 μM KRas protein; typical final concentration of the compounds 10 μM.

Assay [2] deals with T2, KRAS G12C in MiaPaCa2 cells (Homo sapiens, UniProt P01116, G12C).
T2 construct: endogenous in cells; host or cells: MiaPaCa2
Put plainly: MiaPaCa2 Cell Activity Assay (Raf-1 RBD capture of active Ras, MSD). In kind it is cell-based. Conditions: MIAPaCa-2 cells, 6 hours treatment; assay limit is 30.0 μM. As for the experimental part:
MiaPaCa2 Cell Activity Assay
(§1) Compounds presented in the present invention lead to the accumulation of the GDP bound Ras upon treatment of human cancer cell line.
(§2) The accumulation of the GDP-bound KRAS G12C in cellular environment was measured based on the principle that KRAS G12C only binds to its downstream kinase; Raf-1 (MAP Kinase Kinase Kinase), when in its active-GTP bound state. In this state, Ras binded to a domain of Raf-1 kinase referred to as the Ras Binding Domain (RBD).
(§3) MiaPaCa2 cells were grown in DMEM medium (Gibco 11995) supplemented with 10% fetal bovine serum and 1% penicillin/streptomycin. Cells were seeded in 96-well tissue culture plates at a density of 40,000 cells/well and allowed to attach for 16-24 hours. Test compounds were prepared as a 10 mM stock in DMSO and serially diluted in 100% DMSO using a 3-fold dilution scheme. An intermediate 5× concentrated plate in complete growth medium was made and 25 μl/well was added to the 100 μl of cells for a final concentration of 0.1% DMSO. Each concentration of exemplary compound was tested in duplicate. The negative control wells were cells with control inhibitor at 10 μM, and the positive control wells were cells without drugs, DMSO only. Plates were incubated for 6 hours at 37° C., 5% CO2. Following treatment, cells were washed 3× with ice-cold PBS and 100 μl/well ice-cold 1× Assay/Lysis. Buffer with protease inhibitors was added (25 mM HEPES, pH 7.5, 150 mM NaCl, 1% NP-40, 10 mM MgCl2, 1 mM EDTA, 2% Glycerol). Following lysis samples were frozen at −80° C.
(§4) Raf-1 RBD (LJIC-1988A1) was diluted to 100 ng/well in PBS and 5 μl/well was spot coated onto MSD high bind SECTOR plates (L15XB). Plates were incubated at room temperature for 1 hour on an orbital shaker. Plates were washed with PBS/0.05% Tween-20 and 50 μl/well of thawed lysate samples were added, followed by 50 μl of 1% MSD Blocker A in PBS/0.05% Tween-20 (R93BA). Plates were incubated for 1 hour on an orbital shaker and washed with PBS/0.05% Tween-20. 25 μl/well of Anti-pan-Ras Antibody (Cell Biolabs 244003) diluted 1:3000 was added in 1% MSD Blocker A solution and plates were incubated for 1 hour on an orbital shaker and washed with PBS/0.05% Tween-20. SULFO-TAG goat anti-mouse secondary antibody (MSD R32AC) was diluted 1:500 in MSD Blocker A solution and added at 25 μL/well. Plates were incubated for 1 hour on an orbital shaker and washed with PBS/0.05% Tween-20. 150 μl/well of Read Buffer T (MSD R92TC) diluted 1:3 in H2O was added and plates were read on a Meso Scale Discovery Sector Imager S600.
(§5) KRAS signal was normalized to maximum inhibition and DMSO control values, and IC50 values were generated using a 4 parameter fit of the dose response curve. The decrease in IC50 reflects that the exemplary compound lead to a higher level of accumulation of GDP-bound KRAS G12C than another exemplary compounds at specific timepoint of treatment of cancer cell line.

A further assay addresses T3, KRAS G12C in H358 cells (Homo sapiens, UniProt P01116, G12C).
T3 construct: endogenous in cells; host or cells: H358
Put plainly: H358 Cell Activity Assay (Raf-1 RBD capture of active Ras, MSD). It counts as cell-based. The note with it: 6 hours treatment. The procedure:
as §1, §2
as §3, with “H358” for “MiaPaCa2”, “RPMI 1640” for “DMEM”, “11875)” for “11995)”
as §4, §5

With `C=CC(=O)N1CCN(c2nc(OCCN(C)C)nc3c2C[C@@H](C)[C@H](c2c(C)ccc4[nH]ncc24)C3)CC1` [Example C6, 1-{4-[(6R,7R)-2-[2-(dimethylamino)ethoxy]-6-methyl-7-(5-methyl-1H-indazol-4-yl)-5,6,7,8-tetrahydroquinazolin-4-yl]piperazin-1-yl}prop-2-en-1-one], the “% Modification (0.5 h)” value in assay [1] is 66%. Further, the concentration for half-maximal inhibition (IC50) (in general, the concentration that gives 50% inhibition) stood at 0.26 µM in assay [2] and 0.521 µM at KRAS G12C in H358 cells.
For `C=CC(=O)N1CCN(c2nc(OC[C@@H]3CCCN3C)nc3c2C[C@@H](C)[C@H](c2c(C)ccc4[nH]ncc24)C3)CC1` [Example C9, 1-{4-[(6R,7R)-6-methyl-7-(5-methyl-1H-indazol-4-yl)-2-{[(2S)-1-methylpyrrolidin-2-yl]methoxy}-5,6,7,8-tetrahydroquinazolin-4-yl]piperazin-1-yl}prop-2-en-1-one], in that order: 74%, 0.382 µM and 0.27 µM.
As to `C=CC(=O)N1CCN(c2nc(N3CC(N(C)C)C3)nc3c2C[C@@H](C)[C@H](c2c(Cl)c(C)cc4[nH]ncc24)C3)CC1` [Example F7, 1-(4-{(6R,7R)-7-(5-chloro-6-methyl-1H-indazol-4-yl)-2-[3-(dimethylamino)azetidin-1-yl]-6-methyl-5,6,7,8-tetrahydroquinazolin-4-yl}piperazin-1-yl)prop-2-en-1-one], in assay [1], the “% Modification (0.5 h)” value worked out at 82%. For the same molecule, the IC50 came out at 0.108 µM in assay [2] and 0.062 µM against KRAS G12C in H358 cells.
Regarding `C=CC(=O)N1CCN(c2nc(N3CC(N(C)C)C3)nc3c2C[C@@H](C)[C@H](c2c(Cl)c(C)cc4[nH]ncc24)C3)C[C@H]1C` [Example F12, 1-[(2R)-4-{(6R,7R)-7-(5-chloro-6-methyl-1H-indazol-4-yl)-2-[3-(dimethylamino)azetidin-1-yl]-6-methyl-5,6,7,8-tetrahydroquinazolin-4-yl}-2-methylpiperazin-1-yl]prop-2-en-1-one], the “% Modification (0.5 h)” value in assay [1] was found to be 84%. In addition, the values for the IC50 (in assay [2]; against KRAS G12C in H358 cells) were 0.06 µM and 0.064 µM, respectively.
On to `C=CC(=O)N1CCN(c2nc(N3CC(N(C)C)C3)nc3c2C[C@@H](C)[C@H](c2c(C)c(Cl)cc4[nH]ncc24)C3)CC1` [Example F14, 1-(4-{(6R,7R)-7-(6-chloro-5-methyl-1H-indazol-4-yl)-2-[3-(dimethylamino)azetidin-1-yl]-6-methyl-5,6,7,8-tetrahydroquinazolin-4-yl}piperazin-1-yl)prop-2-en-1-one], for which, in assay [1], the “% Modification (0.5 h)” value is 72%. Moreover, the half-inhibitory concentration (IC50) in assay [2] is 0.068 µM; at KRAS G12C in H358 cells it was 0.102 µM.
